Measurements as given in patent US20220142913A1, “TRANSDERMAL DELIVERY FORMULATIONS” (Albert Einstein College of Medicine, priority 2020, published 2022).

Test: Loading potential / solubility of low solubility agents in PEG400/myristic acid vehicles, nitrite saturated PEG400 and water
Format: physicochemical
Settings: for dissolution in Sample 3 solvent system: Sample 3: 30 ml PEG400 + 0.75 grams MA; for dissolved material in aqueous solution: aqueous sample
Protocol: Vehicles for loading the active ingredient were prepared as illustrated in samples 1-4. Myristic acid (solid flakes) was dissolved in PEG400 upon warming the mixture in a warm water bath. Shaking accelerated the formation of the resulting clear solution. The following four concentrations of myristic acid (MA) in PEG400 were prepared and evaluated. Samples 1, 2, 3 and 4 were all clear solutions when the samples were allowed to attain ambient temperatures.
The samples as vehicles were loaded with NO enhancing agent. […] Samples 1 and 2 were initially liquid but formed a solid uniform gel over a period of several hours. Sample 3 was prepared by dissolving 0.75 grams of MA in 30 ml's of PEG400 and heating in a water bath (˜60-80 C) for ˜15 minutes. Sample 4 was prepared by dissolving 2.25 grams of MA in 30 mls of PEG400 and heating in a water bath (˜60-80 C) for ˜15 minutes. Both sample 3 and sample 4 were uniform solutions when the heating cycle was finished. Upon cooling sample 3 remained liquid whereas sample 4 formed a uniform gel. […]
The Sample 3 solvent system was also tested as a vehicle for loading potential with the following low solubility reagents using the above method: quercetin, berberine, N-acetyl cysteine amide (NACA) and N-acetyl cysteine ethyl ester (NAC-ethylester).
The solutions of the two lipophilic NAC derivatives were prepared using sodium nitrite saturated PEG400, resulting in a clear solution. […] NAC is water soluble and the two derivatives are marginally soluble in water. The two solutions were then treated with several drops of acetic acid to trigger the formation of nitrous acid from the nitrite which can then nitrosate the reactive thiol on both of the NAC derivatives. The solutions turned pink indicative of S-nitrosothiol formation. The solutions remained pink for several days. The corresponding aqueous solutions lost color within hours. The use of nitrite saturated PEG400 allows for formulations that can be used to generate NO and S-nitrosothiols through mixing with reagents that acidify the mixture. A double frangible pouch incorporated into a patch may be used for a sustained NO delivery vehicle suitable for topical and transdermal applications.

## CC(=O)N[C@@H](CS)C(=O)O [NAC, N-acetyl cysteine]
  solubility in sodium nitrite saturated PEG400: limited solubility
  solubility in water: water soluble

## O=c1c(O)c(-c2ccc(O)c(O)c2)oc2cc(O)cc(O)c12 [quercetin]
  solubility of quercetin: 200-300 mg in 30 ml
  solubilization in Sample 3: high degree of solubilization
  dissolution in Sample 3 solvent system: substantial dissolution
  dissolved material in aqueous solution: minimal dissolved material

## COc1cc(/C=C/C(=O)CC(=O)/C=C/c2ccc(O)c(OC)c2)ccc1O [Curcumin 95, curcumin]
1.5 grams Curcumin 95 in Samples 1, 2, 3 (30 ml PEG400 + myristic acid), warmed, cooled to ambient
  dissolving of the added curcumin: almost all of the added curcumin

## COc1ccc2cc3[n+](cc2c1OC)CCc1cc2c(cc1-3)OCO2 [berberine]
  dissolution in Sample 3 solvent system: substantial dissolution
  dissolved material in aqueous solution: minimal dissolved material

## CCOC(=O)[C@H](CS)NC(C)=O [NAC-ethylester, N-acetyl cysteine ethyl ester]
  dissolution in Sample 3 solvent system: substantial dissolution

## N-acetyl cysteine amide [NACA]
  dissolution in Sample 3 solvent system: substantial dissolution

## COc1cc(/C=C/C(=O)CC(=O)/C=C/c2ccc(O)c(OC)c2)ccc1O [curcumin]
Same amount of curcumin in same volume of water (3 g in 30 ml)
  dissolution in water (colour of liquid phase): almost no color in the liquid phase
